Target: TRPML1 (Homo sapiens, UniProt Q9GZU1)
Test: Calcium flux in HEK293 overexpressing TRPML1 plasma membrane variant (FLIPR, Calcium 6 dye)
Type: cell-based
Settings: HEK293/TRPML1-PM clone A5 cells; 4-parameter logistic fit; read-out: TRPML1 calcium flux (FLIPR) dose response: EC50
Source text: Example B1. Calcium Flux in HEK293 Overexpressing TRPML1 Plasma Membrane Variant—Calcium 6 Dye
Cells: HEK293/TRPML1-PM clone A5, clonal cell line containing mutant TRPML1 (both N- and C-terminal dileucine targeting motifs deleted) that localizes to the plasma membrane
Plates: Perkin Elmer Viewplate cat. #6007460, black optically clear, tissue culture treated 384-well plate
Calcium dye: Molecular Devices FLIPR Calcium 6 Assay Kit, cat. #R8190 or Fluo-4 Direct from Thermo Fisher, cat. #F10471
Tips: Molecular Devices 384-well FLIPR Tetra black tips, cat. #9000-0764 Example B1.2 Method
HEK293/TRPML1-PM clone A5 cells were trypsinized from flasks, counted, then diluted in media to 15,000 cells per 25 μL, and seeded into a black, 384-well viewplate, and cultured overnight.
One vial of calcium 6 dye was diluted with 10 mL of assay buffer (HBSS+20 mM HEPES pH 7.4) and 25 μL of the dilution was added per well to the cells.
After incubating for 2 hours at 37° C., the plate was moved to the FLIPR in the read position.
The compounds were diluted in EMEM with 0.125% FBS to 5× concentration and loaded in a 384-well plate according to the desired plate map for the assay, including DMSO alone and carbachol controls, then the plate was moved to the FLIPR in the source 2 position.
A box of tips was placed in the source 1 position within the FLIPR to complete the assay set up.
Once the run was started, an initial baseline fluorescent measurement was performed for 10 seconds (470-495 nm excitation and 515-575 nm emission) prior to adding the compounds.
12.5 μL of 5× test compound, DMSO alone, or carbachol were added via the FLIPR and real-time fluorescence measurements were performed for an additional 170 seconds with 1 read per second.
The data was normalized to baseline by calculating maximum fluorescence minus minimum fluorescence and plotted as response (fold) over the baseline versus log ([…] concentration). The EC50 was determined using a 4-parameter logistic curve fit in Graphpad Prism 9.

Chain of TRPML1 (Q9GZU1 17-572 limits assumed): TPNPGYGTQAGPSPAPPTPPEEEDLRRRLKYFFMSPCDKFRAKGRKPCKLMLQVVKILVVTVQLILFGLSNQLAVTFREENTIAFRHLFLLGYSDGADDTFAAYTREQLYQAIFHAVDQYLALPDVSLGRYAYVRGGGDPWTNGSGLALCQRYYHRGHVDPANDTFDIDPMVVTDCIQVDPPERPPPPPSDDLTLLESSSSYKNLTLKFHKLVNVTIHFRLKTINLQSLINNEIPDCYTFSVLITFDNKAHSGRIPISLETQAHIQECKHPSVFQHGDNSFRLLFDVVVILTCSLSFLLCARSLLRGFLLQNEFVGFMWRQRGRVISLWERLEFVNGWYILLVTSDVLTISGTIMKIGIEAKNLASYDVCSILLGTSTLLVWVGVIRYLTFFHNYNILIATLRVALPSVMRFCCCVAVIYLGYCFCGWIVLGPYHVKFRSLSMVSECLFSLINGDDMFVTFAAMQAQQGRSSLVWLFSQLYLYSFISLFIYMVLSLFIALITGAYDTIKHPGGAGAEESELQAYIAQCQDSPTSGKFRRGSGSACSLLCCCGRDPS

Q: `CN(C)CCN(C)c1ccccc1NS(=O)(=O)c1ccc(S(=O)(=O)N(C)C)cc1` [Compound 54, N1-(2-((2-(dimethylamino)ethyl)(methyl)amino)phenyl)-N4,N4-dimethylbenzene-1,4-disulfonamide] was tested. Which EC50 did it give?
A: > 10000 nM

Q: How did the EC50 turn out when `CN(Cc1cnc2n1CCC2)c1ccccc1NS(=O)(=O)c1ccc(S(=O)(=O)N(C)C)cc1` [Compound 79, N1-(2-(((6,7-dihydro-5H-pyrrolo[1,2-a]imidazol-3-yl)methyl)(methyl)amino)phenyl)-N4,N4-dimethylbenzene-1,4-disulfonamide] was run?
A: 28500 nM

Q: Which EC50 does the source give for `Cc1ccc(NS(=O)(=O)c2ccc(S(=O)(=O)N(C)C)cc2)c(N(C)C2CCCCC2)c1` [Compound 35, N1-(2-(cyclohexyl(methyl)amino)-4-methylphenyl)-N4,N4-dimethylbenzene-1,4-disulfonamide] here?
A: 330 nM

Q: How did the EC50 turn out when `COCCCCN(C)c1ccccc1NS(=O)(=O)c1ccc(S(=O)(=O)N(C)C)cc1` [Compound 33, N1-(2-((4-methoxybutyl)(methyl)amino)phenyl)-N4,N4-dimethylbenzene-1,4-disulfonamide] was run?
A: 2740 nM

Q: For `CN(c1ccccc1NS(=O)(=O)c1ccc(S(=O)(=O)N(C)C)cc1)C1CC(F)(F)C1` [Compound 40, N1-(2-((3,3-difluorocyclobutyl) (methyl)amino)phenyl)-N4,N4-dimethylbenzene-1,4-disulfonamide], which EC50 is on record?
A: 410 nM

Q: `CN(c1cc(C#N)ccc1NS(=O)(=O)c1ccc(S(=O)(=O)N(C)C)cc1)C1CCCCC1` [Compound 88, N1-(4-cyano-2-(cyclohexyl(methyl)amino)phenyl)-N4,N4-dimethylbenzene-1,4-disulfonamide] was tested. Which EC50 did it give?
A: 2140 nM

Q: `CN(c1c(NS(=O)(=O)c2ccc(S(=O)(=O)N(C)C)cc2)cccc1C(F)(F)F)C1CCCCC1` [Compound 109, N1-(2-(cyclohexyl(methyl)amino)-3-(trifluoromethyl)phenyl)-N4,N4-dimethylbenzene-1,4-disulfonamide] was tested. Which EC50 did it give?
A: 280 nM

Q: With `CN(CCN1CCOCC1)c1ccccc1NS(=O)(=O)c1ccc(S(=O)(=O)N(C)C)cc1` [Compound 15, N1,N1-dimethyl-N4-(2-(methyl(2-morpholinoethyl)amino)phenyl) benzene-1,4-disulfonamide] as the compound, how does the EC50 read?
A: > 10000 nM

Q: `CN(c1cc(Cl)ccc1NS(=O)(=O)c1ccc(S(=O)(=O)N(C)C)cc1)C1CCCCC1` [Compound 2, N1-(4-chloro-2-(cyclohexyl(methyl)amino)phenyl)-N4,N4-dimethylbenzene-1,4-disulfonamide] was tested. Which EC50 did it give?
A: 3000 nM

Q: With `CN(Cc1cnn(C2CC2)c1)c1ccccc1NS(=O)(=O)c1ccc(S(=O)(=O)N(C)C)cc1` [Compound 5, N1-(2-(((1-cyclopropyl-1H-pyrazol-4-yl)methyl)(methyl)amino)phenyl)-N4,N4-dimethylbenzene-1,4-disulfonamide] as the compound, how does the EC50 read?
A: 2460 nM

Q: How did the EC50 turn out when `CN(c1ccccc1NS(=O)(=O)c1ccc(S(=O)(=O)N(C)C)cc1)C1CCC1` [Compound 37, N1-(2-(cyclobutyl(methyl)amino)phenyl)-N4,N4-dimethylbenzene-1,4-disulfonamide] was run?
A: 750 nM

Q: `CN(CCCn1cccn1)c1ccccc1NS(=O)(=O)c1ccc(S(=O)(=O)N(C)C)cc1` [Compound 105, N1-(2-((3-(1H-pyrazol-1-yl)propyl)(methyl)amino)phenyl)-N4,N4-dimethylbenzene-1,4-disulfonamide] was tested. Which EC50 did it give?
A: 4360 nM

Q: `CN(c1cccc(F)c1NS(=O)(=O)c1ccc(S(=O)(=O)N(C)C)cc1)C1CCCCC1` [Compound 3, N1-(2-(cyclohexyl(methyl)amino)-6-fluorophenyl)-N4,N4-dimethylbenzene-1,4-disulfonamide] was tested. Which EC50 did it give?
A: 4760 nM

Q: With `CCOCCCN(C)c1ccccc1NS(=O)(=O)c1ccc(S(=O)(=O)N(C)C)cc1` [Compound 113, N1-(2-((3-ethoxypropyl)(methyl)amino)phenyl)-N4,N4-dimethylbenzene-1,4-disulfonamide] as the compound, how does the EC50 read?
A: > 10000 nM

Q: Which EC50 does the source give for `CN(Cc1ccccn1)c1ccccc1NS(=O)(=O)c1ccc(S(=O)(=O)N(C)C)cc1` [Compound 46, N1,N1-dimethyl-N4-(2-(methyl(pyridin-2-ylmethyl)amino)phenyl)benzene-1,4-disulfonamide] here?
A: 2560 nM

Q: Which EC50 does the source give for `CCCN(C)c1ccccc1NS(=O)(=O)c1ccc(S(=O)(=O)N(C)C)cc1` [Compound 16, N1,N1-dimethyl-N4-(2-(methyl(propyl)amino)phenyl)benzene-1,4-disulfonamide] here?
A: 2370 nM

Q: For `CN(c1ccc(Cl)cc1NS(=O)(=O)c1ccc(S(=O)(=O)N(C)C)cc1)C1CCCCC1` [Compound 1, N1-(5-chloro-2-(cyclohexyl(methyl)amino)phenyl)-N4,N4-dimethylbenzene-1,4-disulfonamide], which EC50 is on record?
A: 1240 nM

Q: For `CN(c1ccccc1NS(=O)(=O)c1ccc(S(=O)(=O)N(C)C)cc1)C1CCOCC1` [Compound 19, N1,N1-dimethyl-N4-(2-(methyl(tetrahydro-2H-pyran-4-yl)amino)phenyl)benzene-1,4-disulfonamide], which EC50 is on record?
A: 2030 nM

Q: With `CN(CC1CCOC(C)(C)C1)c1ccccc1NS(=O)(=O)c1ccc(S(=O)(=O)N(C)C)cc1` (centres unmarked) [Compound 100, N1-(2-(((2,2-dimethyltetrahydro-2H-pyran-4-yl)methyl)(methyl)amino)phenyl)-N4,N4-dimethylbenzene-1,4-disulfonamide] as the compound, how does the EC50 read?
A: 1160 nM

Q: `CN(Cc1cccnc1)c1ccccc1NS(=O)(=O)c1ccc(S(=O)(=O)N(C)C)cc1` [Compound 57, N1,N1-dimethyl-N4-(2-(methyl(pyridin-3-ylmethyl)amino)phenyl)benzene-1,4-disulfonamide] was tested. Which EC50 did it give?
A: 4610 nM

Q: With `CN(c1ccccc1)c1ccccc1NS(=O)(=O)c1ccc(S(=O)(=O)N(C)C)cc1` [Compound 27, N1,N1-dimethyl-N4-(2-(methyl(phenyl)amino)phenyl)benzene-1,4-disulfonamide] as the compound, how does the EC50 read?
A: > 10000 nM

Q: With `CN(C)S(=O)(=O)c1ccc(S(=O)(=O)Nc2ccccc2N(C=O)Cc2cncs2)cc1` [Compound 61, N-(2-((4-(N,N-dimethylsulfamoyl)phenyl)sulfonamido)phenyl)-N-(thiazol-5-ylmethyl)formamide] as the compound, how does the EC50 read?
A: > 30000 nM

Q: Which EC50 does the source give for `CN(c1cc(F)ccc1NS(=O)(=O)c1ccc(S(=O)(=O)N(C)C)cc1)C1CCCCC1` [Compound 4, N1-(2-(cyclohexyl(methyl)amino)-4-fluorophenyl)-N4,N4-dimethylbenzene-1,4-disulfonamide] here?
A: 2210 nM

Q: For `CN1CCC(N(C)c2ccccc2NS(=O)(=O)c2ccc(S(=O)(=O)N(C)C)cc2)CC1` [Compound 21, N1,N1-dimethyl-N4-(2-(methyl(1-methylpiperidin-4-yl)amino)phenyl)benzene-1,4-disulfonamide], which EC50 is on record?
A: > 10000 nM

Q: For `CN(Cc1ccncc1)c1ccccc1NS(=O)(=O)c1ccc(S(=O)(=O)N(C)C)cc1` [Compound 8, N1,N1-dimethyl-N4-(2-(methyl(pyridin-4-ylmethyl)amino)phenyl) benzene-1,4-disulfonamide], which EC50 is on record?
A: 3690 nM

Q: Which EC50 does the source give for `CN(CC1CCCO1)c1ccccc1NS(=O)(=O)c1ccc(S(=O)(=O)N(C)C)cc1` (centres unmarked) [Compound 107, N1,N1-dimethyl-N4-(2-(methyl((tetrahydrofuran-2-yl)methyl)amino)phenyl)benzene-1,4-disulfonamide] here?
A: 1390 nM

Q: Which EC50 does the source give for `CN(Cc1cncn1C)c1ccccc1NS(=O)(=O)c1ccc(S(=O)(=O)N(C)C)cc1` [Compound 56, N1,N1-dimethyl-N4-(2-(methyl((1-methyl-1H-imidazol-5-yl)methyl)amino)phenyl)benzene-1,4-disulfonamide] here?
A: > 10000 nM

Q: `CN(c1ccc(F)cc1NS(=O)(=O)c1ccc(S(=O)(=O)N(C)C)cc1)C1CCCCC1` [Compound 53, N1-(2-(cyclohexyl(methyl)amino)-5-fluorophenyl)-N4,N4-dimethylbenzene-1,4-disulfonamide] was tested. Which EC50 did it give?
A: 1060 nM

Q: How did the EC50 turn out when `COCC1(C)CCC(N(C)c2ccccc2NS(=O)(=O)c2ccc(S(=O)(=O)N(C)C)cc2)CC1` (centres unmarked) [Compound 42, N1-(2-((4-(methoxymethyl)-4-methylcyclohexyl)(methyl)amino)phenyl)-N4,N4-dimethylbenzene-1,4-disulfonamide] was run?
A: 820 nM

Q: Which EC50 does the source give for `CN(Cc1cn(C)cn1)c1ccccc1NS(=O)(=O)c1ccc(S(=O)(=O)N(C)C)cc1` [Compound 59, N1,N1-dimethyl-N4-(2-(methyl((1-methyl-1H-imidazol-4-yl)methyl)amino)phenyl)benzene-1,4-disulfonamide] here?
A: 2240 nM

Q: `Cc1ncc(F)cc1CN(C)c1ccccc1NS(=O)(=O)c1ccc(S(=O)(=O)N(C)C)cc1` [Compound 75, N1-(2-(((5-fluoro-2-methylpyridin-3-yl)methyl)(methyl)amino)phenyl)-N4,N4-dimethylbenzene-1,4-disulfonamide] was tested. Which EC50 did it give?
A: 2140 nM

Q: With `CN(c1ccccc1NS(=O)(=O)c1ccc(S(=O)(=O)N(C)C)cc1)C1CCNCC1` [Compound 22, N1,N1-dimethyl-N4-(2-(methyl(piperidin-4-yl)amino)phenyl)benzene-1,4-disulfonamide] as the compound, how does the EC50 read?
A: > 10000 nM

— patent US20250340510A1, “Substituted Phenylbenzenesulfonamide Derivatives and Uses Thereof” (Nine Square Therapeutics Corporation, priority 2022, published 2025)
